Experimental data published in the OligoGym collection.
Oligonucleotides are written 5' to 3', each unit as a sugar letter and its base; * is a phosphorothioate linkage, no mark a phosphodiester; rarer units and linkages stand in square brackets, end groups in braces. Plain capitals give the bases only. d = 2'-deoxy (DNA); r = 2'-OH (RNA)
Also: test concentration or dose not given here.

What follows are substances tested against UBE2E3 (assay: reporter assay of Huesken 2005). Conditions: siRNA.
“sense rCrCrUrUrGrArUrCrCrUrCrCrUrCrCrUrArArUdTdT / antisense rArUrUrArGrGrArGrGrArGrGrArUrCrArArGrGdGdT” gave a normalised inhibition (eCFP-eYFP dual reporter) of 81.6%.
“sense rCrGrArCrArGrGrArUrArGrCrCrArGrArCrArGdTdT / antisense rCrUrGrUrCrUrGrGrCrUrArUrCrCrUrGrUrCrGdTdG” gave a normalised inhibition (eCFP-eYFP dual reporter) of 78%.
“sense rCrGrCrArCrCrArGrArArUrCrUrArUrCrArCrUdTdT / antisense rArGrUrGrArUrArGrArUrUrCrUrGrGrUrGrCrGdGdA” gave a normalised inhibition (eCFP-eYFP dual reporter) of 73.4%.
Work on “sense rCrUrCrCrUrArArUrUrGrCrArGrUrGrCrUrGrGdTdT / antisense rCrCrArGrCrArCrUrGrCrArArUrUrArGrGrArGdGdA” yielded a normalised inhibition (eCFP-eYFP dual reporter) of 51.1%.
In the case of “sense rCrUrCrCrUrCrCrUrArArUrUrGrCrArGrUrGrCdTdT / antisense rGrCrArCrUrGrCrArArUrUrArGrGrArGrGrArGdGdA”, the normalised inhibition (eCFP-eYFP dual reporter) is reported as 34.3%.
“sense rCrUrGrGrArGrUrCrCrCrGrCrUrUrUrGrArCrUdTdT / antisense rArGrUrCrArArArGrCrGrGrGrArCrUrCrCrArGdTdT” showed a normalised inhibition (eCFP-eYFP dual reporter) of 72%.
Substance “sense rCrUrGrUrArUrArUrGrArArGrGrUrGrGrUrGrUdTdT / antisense rArCrArCrCrArCrCrUrUrCrArUrArUrArCrArGdAdA” has a normalised inhibition (eCFP-eYFP dual reporter) of 36.8%.
“sense rCrUrUrGrGrUrCrCrArCrCrGrGrGrUrUrCrUrGdTdT / antisense rCrArGrArArCrCrCrGrGrUrGrGrArCrCrArArGdTdA” showed a normalised inhibition (eCFP-eYFP dual reporter) of 68.4%.
“sense rGrArArGrGrArGrCrUrArGrCrUrGrArArArUrAdTdT / antisense rUrArUrUrUrCrArGrCrUrArGrCrUrCrCrUrUrCdTdG” was tested, and the normalised inhibition (eCFP-eYFP dual reporter) was 88.5%.
Work on “sense rGrArCrCrArGrCrGrArGrArCrCrCrArGrCrCrGdTdT / antisense rCrGrGrCrUrGrGrGrUrCrUrCrGrCrUrGrGrUrCdCdG” yielded a normalised inhibition (eCFP-eYFP dual reporter) of 54.7%.
Work on “sense rGrArUrArUrCrArCrArUrUrUrUrCrArUrCrArGdTdT / antisense rCrUrGrArUrGrArArArArUrGrUrGrArUrArUrCdCdA” yielded a normalised inhibition (eCFP-eYFP dual reporter) of 57.6%.
For “sense rGrCrArArCrArUrCrArArCrArGrUrCrArGrGrGdTdT / antisense rCrCrCrUrGrArCrUrGrUrUrGrArUrGrUrUrGrCdAdG”, the normalised inhibition (eCFP-eYFP dual reporter) was 66.1%.
Work on “sense rGrCrCrArCrUrCrArGrUrArUrUrUrGrArCrCrAdTdT / antisense rUrGrGrUrCrArArArUrArCrUrGrArGrUrGrGrCdTdA” yielded a normalised inhibition (eCFP-eYFP dual reporter) of 90.9%.
“sense rGrCrGrArGrArCrCrCrArGrCrCrGrCrUrCrCrAdTdT / antisense rUrGrGrArGrCrGrGrCrUrGrGrGrUrCrUrCrGrCdTdG” was tested, and the normalised inhibition (eCFP-eYFP dual reporter) was 69.2%.
“sense rGrCrUrGrGrGrCrCrUrArArArGrGrArGrArUrAdTdT / antisense rUrArUrCrUrCrCrUrUrUrArGrGrCrCrCrArGrCdAdC” was tested, and the normalised inhibition (eCFP-eYFP dual reporter) was 67.2%.
With “sense rGrGrArGrArUrArArCrArUrUrUrArUrGrArArUdTdT / antisense rArUrUrCrArUrArArArUrGrUrUrArUrCrUrCrCdTdT” the normalised inhibition (eCFP-eYFP dual reporter) was 75.8%.
“sense rGrGrArGrCrUrArGrCrUrGrArArArUrArArCrCdTdT / antisense rGrGrUrUrArUrUrUrCrArGrCrUrArGrCrUrCrCdTdT” was tested, and the normalised inhibition (eCFP-eYFP dual reporter) was 80.5%.
Work on “sense rGrGrArGrUrCrArUrCrUrGrUrCrUrGrGrArCrAdTdT / antisense rUrGrUrCrCrArGrArCrArGrArUrGrArCrUrCrCdCdT” yielded a normalised inhibition (eCFP-eYFP dual reporter) of 75.6%.
Substance “sense rGrGrArGrUrCrCrCrGrCrUrUrUrGrArCrUrArUdTdT / antisense rArUrArGrUrCrArArArGrCrGrGrGrArCrUrCrCdAdG” has a normalised inhibition (eCFP-eYFP dual reporter) of 69.2%.
In the case of “sense rGrGrArUrCrCrUrCrUrGrGrUrUrGrGrArArGrCdTdT / antisense rGrCrUrUrCrCrArArCrCrArGrArGrGrArUrCrCdGdC”, the normalised inhibition (eCFP-eYFP dual reporter) is reported as 59.8%.
For “sense rGrGrUrUrArCrUrUrUrCrCrGrCrArCrCrArGrAdTdT / antisense rUrCrUrGrGrUrGrCrGrGrArArArGrUrArArCrCdTdT”, the normalised inhibition (eCFP-eYFP dual reporter) was 91.4%.
For “sense rGrGrUrUrUrUrGrCrUrGrUrCrUrArUrUrUrGrUdTdT / antisense rArCrArArArUrArGrArCrArGrCrArArArArCrCdTdT”, the normalised inhibition (eCFP-eYFP dual reporter) was 94.8%.
With “sense rGrUrCrArGrGrGrArGrUrCrArUrCrUrGrUrCrUdTdT / antisense rArGrArCrArGrArUrGrArCrUrCrCrCrUrGrArCdTdG” the normalised inhibition (eCFP-eYFP dual reporter) was 83.4%.
“sense rGrUrCrArUrCrUrGrUrCrUrGrGrArCrArUrCrCdTdT / antisense rGrGrArUrGrUrCrCrArGrArCrArGrArUrGrArCdTdC” was tested, and the normalised inhibition (eCFP-eYFP dual reporter) was 43.8%.
Work on “sense rGrUrGrCrUrArArArArGrArArUrUrCrArGrArAdTdT / antisense rUrUrCrUrGrArArUrUrCrUrUrUrUrArGrCrArCdTdA” yielded a normalised inhibition (eCFP-eYFP dual reporter) of 81.5%.
With “sense rUrArArArGrArCrArArCrUrGrGrArGrUrCrCrCdTdT / antisense rGrGrGrArCrUrCrCrArGrUrUrGrUrCrUrUrUrAdAdG” the normalised inhibition (eCFP-eYFP dual reporter) was 43.8%.
“sense rUrArArUrUrGrCrArGrUrGrCrUrGrGrGrCrCrUdTdT / antisense rArGrGrCrCrCrArGrCrArCrUrGrCrArArUrUrAdGdG” was tested, and the normalised inhibition (eCFP-eYFP dual reporter) was 47.3%.
“sense rUrArCrUrUrUrCrCrGrCrArCrCrArGrArArUrCdTdT / antisense rGrArUrUrCrUrGrGrUrGrCrGrGrArArArGrUrAdAdC” was tested, and the normalised inhibition (eCFP-eYFP dual reporter) was 49.2%.
In the case of “sense rUrArUrGrArArGrGrUrGrGrUrGrUrGrUrUrUrUdTdT / antisense rArArArArCrArCrArCrCrArCrCrUrUrCrArUrAdTdA”, the normalised inhibition (eCFP-eYFP dual reporter) is reported as 50.1%.
For “sense rUrArUrUrUrGrUrUrCrCrCrUrUrUrUrGrArCrAdTdT / antisense rUrGrUrCrArArArArGrGrGrArArCrArArArUrAdGdA”, the normalised inhibition (eCFP-eYFP dual reporter) was 45.2%.
Substance “sense rUrCrArArCrArGrUrCrArGrGrGrArGrUrCrArUdTdT / antisense rArUrGrArCrUrCrCrCrUrGrArCrUrGrUrUrGrAdTdG” has a normalised inhibition (eCFP-eYFP dual reporter) of 74.7%.
“sense rUrCrArGrArArGrGrArGrCrUrArGrCrUrGrArAdTdT / antisense rUrUrCrArGrCrUrArGrCrUrCrCrUrUrCrUrGrAdAdT” was tested, and the normalised inhibition (eCFP-eYFP dual reporter) was 87.4%.
For “sense rUrCrArGrArUrUrArUrCrCrArUrUrUrArArGrCdTdT / antisense rGrCrUrUrArArArUrGrGrArUrArArUrCrUrGrAdTdG”, the normalised inhibition (eCFP-eYFP dual reporter) was 38.2%.
Work on “sense rUrCrArGrGrGrArGrUrCrArUrCrUrGrUrCrUrGdTdT / antisense rCrArGrArCrArGrArUrGrArCrUrCrCrCrUrGrAdCdT” yielded a normalised inhibition (eCFP-eYFP dual reporter) of 49%.
“sense rUrCrUrCrUrArGrCrArArArArCrCrArCrUrGrCdTdT / antisense rGrCrArGrUrGrGrUrUrUrUrGrCrUrArGrArGrAdGdT” was tested, and the normalised inhibition (eCFP-eYFP dual reporter) was 35.9%.
In the case of “sense rUrCrUrGrGrArUrArUrCrArCrArUrUrUrUrCrAdTdT / antisense rUrGrArArArArUrGrUrGrArUrArUrCrCrArGrAdAdA”, the normalised inhibition (eCFP-eYFP dual reporter) is reported as 68.8%.
Substance “sense rUrGrArArGrArArCrArArGrArGrGrArArArGrAdTdT / antisense rUrCrUrUrUrCrCrUrCrUrUrGrUrUrCrUrUrCrAdGdG” has a normalised inhibition (eCFP-eYFP dual reporter) of 89.3%.
